Results as given in ChEMBL document CHEMBL1201862, “PubChem BioAssay data set” (2004).
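Cells were grown in 96-well plates and exposed to each compound for 48 hours at five concentrations; endpoints were interpolated linearly between bracketing concentrations, or set to the highest concentration if not reached. Here, GI50 denotes the concentration required for 50% inhibition of growth.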 Active and inactive are the calls of the source. No stated cut-off is given here; in the data, active = GI50 up to about 1.1 µM and inactive = higher.

Key:
Experiment in all cases: inhibition of tumour cell growth, NCI panel, 48 h
UACC-257 = tested on: UACC-257
SN12C = tested on: SN12C
A498 = tested on: A498
SK-MEL-28 = tested on: SK-MEL-28
OVCAR-4 = tested on: OVCAR-4
HOP-62 = tested on: HOP-62
MDA-MB-231 = tested on: MDA-MB-231
MDA-MB-435 = tested on: MDA-MB-435
OVCAR-3 = tested on: OVCAR-3
786-0 = tested on: 786-0
MCF7 = tested on: MCF7
ACHN = tested on: ACHN
UO-31 = tested on: UO-31
IGROV-1 = tested on: IGROV-1
HL-60 = tested on: HL-60
HCC 2998 = tested on: HCC 2998
NCI-H23 = tested on: NCI-H23
PC-3 = tested on: PC-3
TK-10 = tested on: TK-10
NCI-H226 = tested on: NCI-H226

| SMILES | GI50 (UACC-257) | GI50 (SN12C) | GI50 (A498) | GI50 (SK-MEL-28) | GI50 (OVCAR-4) | GI50 (HOP-62) | GI50 (MDA-MB-231) | GI50 (MDA-MB-435) | GI50 (OVCAR-3) | GI50 (786-0) | GI50 (MCF7) | GI50 (ACHN) | GI50 (UO-31) | GI50 (IGROV-1) | GI50 (HL-60) | GI50 (HCC 2998) | GI50 (NCI-H23) | GI50 (PC-3) | GI50 (TK-10) | GI50 (NCI-H226) |
| --- | --- | --- | --- | --- | --- | --- | --- | --- | --- | --- | --- | --- | --- | --- | --- | --- | --- | --- | --- | --- |
| COc1ccc(C(=O)/C=C/c2cc(O)c(O)cc2F)c(OC)c1 | 10.5 µM (inactive) | 3.94 µM (inactive) | 12.1 µM (inactive) | 11.8 µM (inactive) | 12.5 µM (inactive) | 6.58 µM (inactive) | 13.6 µM (inactive) | 2.9 µM (inactive) | 0.327 µM (active) | 5.45 µM (inactive) | 0.395 µM (active) | 7.08 µM (inactive) | 7.67 µM (inactive) | 7.96 µM (inactive) | 1.15 µM (inactive) | 2.27 µM (inactive) | 5.3 µM (inactive) | 5.78 µM (inactive) | 15.1 µM (inactive) | 13.2 µM (inactive) |
| Cc1cc([C@H](C#N)c2nc3ccccc3s2)nc(Cl)n1 | 5.41 µM (inactive) | 3.42 µM (inactive) | 15.2 µM (inactive) | 6.67 µM (inactive) | 5.82 µM (inactive) | 4.66 µM (inactive) | 3 µM (inactive) | 2.99 µM (inactive) | 4.84 µM (inactive) | 4.76 µM (inactive) | 4.41 µM (inactive) | 9.25 µM (inactive) | 4.39 µM (inactive) | 3.52 µM (inactive) | 3.67 µM (inactive) | 4.86 µM (inactive) | 2.78 µM (inactive) | 3.54 µM (inactive) | 4.98 µM (inactive) | 3.46 µM (inactive) |
| Nc1ncnc2c1ncn2C(=O)NC12CC3CC(CC(C3)C1)C2 | > 100 µM (inactive) | > 100 µM (inactive) | > 100 µM (inactive) | > 100 µM (inactive) | > 100 µM (inactive) | > 100 µM (inactive) | > 100 µM (inactive) | > 100 µM (inactive) | > 100 µM (inactive) | > 100 µM (inactive) | > 100 µM (inactive) | > 100 µM (inactive) | > 100 µM (inactive) |  | > 100 µM (inactive) | > 100 µM (inactive) | > 100 µM (inactive) | > 100 µM (inactive) | > 100 µM (inactive) | > 100 µM (inactive) |
| CSc1ncnc2c1cnn2CCCCO | > 100 µM (inactive) | > 100 µM (inactive) | > 100 µM (inactive) | > 100 µM (inactive) | > 100 µM (inactive) | > 100 µM (inactive) | > 100 µM (inactive) | > 100 µM (inactive) | > 100 µM (inactive) | > 100 µM (inactive) | > 100 µM (inactive) | > 100 µM (inactive) | > 100 µM (inactive) | > 100 µM (inactive) | > 100 µM (inactive) | > 100 µM (inactive) | > 100 µM (inactive) | > 100 µM (inactive) | > 100 µM (inactive) | > 100 µM (inactive) |
| O=S(=O)(c1ccccc1)[C@H]1[C@@H]2O[C@@H]2C[C@@H]1O | > 100 µM (inactive) | > 100 µM (inactive) | > 100 µM (inactive) | > 100 µM (inactive) | > 100 µM (inactive) | > 100 µM (inactive) | > 100 µM (inactive) | > 100 µM (inactive) | > 100 µM (inactive) | > 100 µM (inactive) | > 100 µM (inactive) | > 100 µM (inactive) | > 100 µM (inactive) | > 100 µM (inactive) | > 100 µM (inactive) | > 100 µM (inactive) | > 100 µM (inactive) | > 100 µM (inactive) | > 100 µM (inactive) | > 100 µM (inactive) |
| CC(C)=CCN1CC(C)C(=O)Nc2ccccc21 (centres undefined) | 44.7 µM (inactive) | > 100 µM (inactive) | > 100 µM (inactive) | > 100 µM (inactive) | > 100 µM (inactive) | > 100 µM (inactive) | > 100 µM (inactive) | > 100 µM (inactive) | > 100 µM (inactive) | > 100 µM (inactive) | 61.4 µM (inactive) | > 100 µM (inactive) | > 100 µM (inactive) | > 100 µM (inactive) | > 100 µM (inactive) | > 100 µM (inactive) | > 100 µM (inactive) | > 100 µM (inactive) | > 100 µM (inactive) | 65.2 µM (inactive) |
| CCCc1c(O)c(=O)c2c(OC)cc(OC)c3c4c(OC)cc(OC)c5c(=O)c(O)c(CCC)c(c1c23)c54 | 1.15 µM (inactive) | 1.76 µM (inactive) | 0.678 µM (active) | 3.13 µM (inactive) | 2.56 µM (inactive) | 0.543 µM (active) | 1.56 µM (inactive) | 0.371 µM (active) | 1.92 µM (inactive) | 0.676 µM (active) | 0.403 µM (active) | 0.617 µM (active) | 0.404 µM (active) | 0.337 µM (active) | 1.74 µM (inactive) | 1.76 µM (inactive) | 0.474 µM (active) | 0.443 µM (active) | 1.9 µM (inactive) | 1.63 µM (inactive) |
